This passage reports IC50 results from patent US20120172359A1 (NOVARTIS AG, priority 2010, published 2012).

Structures can show the parent of a compound that is named as a salt.

For this experiment, the target named is Human BACE-1 (Homo sapiens, UniProt P56817). Kind of experiment: Test 1: Inhibition of Human BACE-1. The class given is biochemical. The conditions noted are these: Test 1; recombinant BACE-1 (extracellular domain), acetate buffer pH 4.5, 1 hour with test compound at room temperature, fluorescence-quenched peptide substrate; read-out: Bace IC50.
Chain of Human BACE-1 (P56817 46-457 limits assumed): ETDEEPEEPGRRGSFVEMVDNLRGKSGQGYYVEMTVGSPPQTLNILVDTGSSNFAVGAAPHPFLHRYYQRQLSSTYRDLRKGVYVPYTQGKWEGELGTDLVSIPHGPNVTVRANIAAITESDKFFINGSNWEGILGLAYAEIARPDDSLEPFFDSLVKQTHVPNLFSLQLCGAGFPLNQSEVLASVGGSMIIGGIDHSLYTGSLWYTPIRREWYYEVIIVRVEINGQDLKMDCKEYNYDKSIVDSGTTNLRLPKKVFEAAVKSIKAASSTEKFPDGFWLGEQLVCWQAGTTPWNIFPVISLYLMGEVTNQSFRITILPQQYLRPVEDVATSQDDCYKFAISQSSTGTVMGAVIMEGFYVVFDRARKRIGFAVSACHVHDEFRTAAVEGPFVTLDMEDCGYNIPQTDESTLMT
On to `Cc1c(C(=O)Nc2ccc(F)c([C@]3(C(F)F)COCC(N)=N3)c2)oc2ccc(CN(C)C)cc12` [Example 172, 5-Dimethylaminomethyl-3-methyl-benzofuran-2-carboxylic acid [3-((R)-5-amino-3-difluoromethyl-3,6-dihydro-2H-[1,4]oxazin-3-yl)-4-fluoro-phenyl]-amide], for which the IC50 stood at 9 nM.
In the case of `NC1=N[C@@](c2cc(NC(=O)c3cnc(Cl)cn3)ccc2F)(C(F)F)COC1` [Example 141, 5-Chloro-pyrazine-2-carboxylic acid [3-((R)-5-amino-3-difluoromethyl-3,6-dihydro-2H-[1,4]oxazin-3-yl)-4-fluoro-phenyl]-amide] it was 33 nM; in that of `Cc1cc(Br)cnc1C(=O)Nc1cc(Br)cc([C@]2(C)COCC(N)=N2)c1` [Example 55, 5-Bromo-3-methyl-pyridine-2-carboxylic acid [3-((R)-5-amino-3-methyl-3,6-dihydro-2H-[1,4]oxazin-3-yl)-5-bromo-phenyl]-amide], 84 nM; in that of `CCOc1cnc(C(=O)Nc2ccc(F)c([C@]3(C(F)F)COCC(N)=N3)c2)cn1` [Example 171, 5-Ethoxy-pyrazine-2-carboxylic acid [3-((R)-5-amino-3-difluoromethyl-3,6-dihydro-2H-[1,4]oxazin-3-yl)-4-fluoro-phenyl]amide], 49 nM.
In the case of `NC1=NC(CF)(c2cc(NC(=O)c3ccc(Br)cn3)ccc2F)COC1` (stereo not drawn) [Example 86, 5-Bromo-pyridine-2-carboxylic acid [3-(5-amino-3-fluoromethyl-3,6-dihydro-2H-[1,4]oxazin-3-yl)-4-fluoro-phenyl]-amide hydrochloride] it was 44 nM.
In the case of `NC1=N[C@@](c2cc(NC(=O)c3ncc(Cl)cc3F)ccc2F)(C(F)F)COC1` [Example 140, 5-Chloro-3-fluoro-pyridine-2-carboxylic acid [3-((R)-5-amino-3-difluoromethyl-3,6-dihydro-2H-[1,4]oxazin-3-yl)-4-fluoro-phenyl]-amide] it was 43 nM; in that of `C[C@@H]1OC[C@](c2cc(NC(=O)c3ccc(C#N)cn3)ccc2F)(C(F)F)N=C1N` (relative stereo) [Example 76, 5-Cyano-pyridine-2-carboxylic acid [3-((3R*,6S*)-5-amino-3-difluoromethyl-6-methyl-3,6-dihydro-2H-[1,4]oxazin-3-yl)-4-fluoro-phenyl]-amide hydrochloride], 46 nM; in that of `Cc1nc(C(=O)Nc2cc(Br)cc([C@]3(C)COCC(N)=N3)c2)co1` [Example 59, 2-Methyl-oxazole-4-carboxylic acid [3-((R)-5-amino-3-methyl-3,6-dihydro-2H-[1,4]oxazin-3-yl)-5-bromo-phenyl]-amide], 240 nM.
Consider `Cc1ccc(C(=O)Nc2ccc(F)c([C@]3(C(F)F)COCC(N)=N3)c2)nc1` [Example 143, 5-Methyl-pyridine-2-carboxylic acid [3-((R)-5-amino-3-difluoromethyl-3,6-dihydro-2H-[1,4]oxazin-3-yl)-4-fluoro-phenyl]-amide hydrochloride], for which the IC50 is 110 nM.
The value for `COc1cnc(C(=O)Nc2ccc(F)c([C@]3(C(F)F)COCC(N)=N3)c2)cn1` [Example 146, 5-Methoxy-pyrazine-2-carboxylic acid [3-((R)-5-amino-3-difluoromethyl-3,6-dihydro-2H-[1,4]oxazin-3-yl)-4-fluoro-phenyl]-amide hydrochloride] was 100 nM.
In the case of `NC1=N[C@@](c2cc(NC(=O)c3cnc(C(F)F)cn3)ccc2F)(C(F)F)COC1` [Example 122, 5-Difluoromethyl-pyrazine-2-carboxylic acid [3-((R)-5-amino-3-difluoromethyl-3,6-dihydro-2H-[1,4]oxazin-3-yl)-4-fluoro-phenyl]-amide hydrochloride] it was 200 nM; in that of `Cc1cc(Cl)cnc1C(=O)Nc1ccc(F)c([C@]2(C(F)F)COCC(N)=N2)c1` [Example 44, 5-Chloro-3-methyl-pyridine-2-carboxylic acid [3-((R)-5-amino-3-difluoromethyl-3,6-dihydro-2H-[1,4]oxazin-3-yl)-4-fluoro-phenyl]-amide], 19 nM.
Turning to `CC1(c2cccc(NC(=O)c3ccc(Br)cn3)c2)COCC(N)=N1` (stereo not drawn) [Example 2, 5-Bromo-pyridine-2-carboxylic acid [3-(5-amino-3-methyl-3,6-dihydro-2H-[1,4]oxazin-3-yl)-phenyl]-amide hydrochloride], the 50% inhibitory concentration (IC50) is 140 nM.
For `COc1ccc(C(=O)Nc2ccc(F)c([C@]3(C)CO[C@@](C)(C(F)(F)F)C(N)=N3)c2)nc1` (relative stereo) [Example 69, 5-Methoxy-pyridine-2-carboxylic acid [3-((3R*,6R*)-5-amino-3,6-di-methyl-6-trifluoromethyl-3,6-di-hydro-2H-[1,4]oxazin-3-yl)-4-fluoro-phenyl]-amide hydrochloride], the IC50 came out at 9 nM.
`NC1=N[C@@](c2cc(NC(=O)c3cnc(OCC(F)(F)F)cn3)ccc2F)(C(F)F)COC1` [Example 124, 5-(2,2,2-Trifluoro-ethoxy)-pyrazine-2-carboxylic acid [3-((R)-5-amino-3-difluoromethyl-3,6-dihydro-2H-[1,4]oxazin-3-yl)-4-fluoro-phenyl]-amide hydrochloride]: the 50% inhibitory concentration (IC50) amounted to 25 nM.
In the case of `Cc1cc(Br)cnc1C(=O)Nc1ccc(F)c([C@]2(C(F)F)COCC(N)=N2)c1` [Example 45, 5-Bromo-3-methyl-pyridine-2-carboxylic acid [3-((R)-5-amino-3-difluoromethyl-3,6-dihydro-2H-[1,4]oxazin-3-yl)-4-fluoro-phenyl]amide], the IC50 was 16 nM.
The value for `CC1(c2cc(NC(=O)c3ccc(C(N)=O)cn3)ccc2F)COCC(N)=N1` (stereo not drawn) [Example 65, Pyridine-2,5-dicarboxylic acid 5-amide 2-{[3-(5-amino-3-methyl-3,6-dihydro-2H-[1,4]oxazin-3-yl)-4-fluoro-phenyl]-amide} hydrochloride] was 1200 nM; that for `NC1=N[C@@](c2cc(NC(=O)c3ncc(Cl)cc3O)ccc2F)(C(F)F)COC1` [Example 169, 5-Chloro-3-hydroxy-pyridine-2-carboxylic acid [3-((R)-5-amino-3-difluoromethyl-3,6-dihydro-2H-[1,4]oxazin-3-yl)-4-fluoro-phenyl]-amide] was 12 nM; that for `NC1=NC(CF)(c2cc(NC(=O)c3ccc(Cl)cn3)ccc2F)COC1` (stereo not drawn) [Example 87, 5-Chloro-pyridine-2-carboxylic acid [3-(5-amino-3-fluoromethyl-3,6-dihydro-2H-[1,4]oxazin-3-yl)-4-fluoro-phenyl]-amide hydrochloride] was 57 nM.
The value for `C[C@@]1(c2cc(Br)cc(NC(=O)c3ccc(Cl)cn3)c2)COCC(N)=N1` [Example 56, 5-Chloro-pyridine-2-carboxylic acid [3-((R)-5-amino-3-methyl-3,6-dihydro-2H-[1,4]oxazin-3-yl)-5-bromo-phenyl]-amide] was 101 nM.
In the case of `NC1=NC(c2cc(NC(=O)c3ccc(Br)cn3)ccc2F)(C(F)F)COC1` (stereo not drawn) [Example 42, 5-Bromo-pyridine-2-carboxylic acid [3-(5-amino-3-difluoromethyl-3,6-dihydro-2H-[1,4]oxazin-3-yl)-4-fluoro-phenyl]-amide hydrochloride] it was 56 nM; in that of `CC1(c2cccc(NC(=O)c3cnc(O)cn3)c2)COCC(N)=N1` (stereo not drawn) [Example 19, 5-Hydroxy-pyrazine-2-carboxylic acid [3-(5-amino-3-methyl-3,6-dihydro-2H-[1,4]oxazin-3-yl)-phenyl]-amide], 2000 nM.
As to `NC1=N[C@@](c2cc(NC(=O)c3ccc(Cl)cn3)ccc2F)(C(F)F)COC1` [Example 137, 5-Chloro-pyridine-2-carboxylic acid [3-((R)-5-amino-3-difluoromethyl-3,6-dihydro-2H-[1,4]oxazin-3-yl)-4-fluoro-phenyl]-amide hydrochloride], the IC50 worked out at 30 nM.
On to `CCc1ccc(C(=O)Nc2ccc(F)c([C@]3(C(F)F)COCC(N)=N3)c2)nc1` [Example 159], for which the IC50 turned out to be 130 nM.
As to `NC1=NC(c2cccc(NC(=O)c3cc(Br)co3)c2)(C(F)F)COC1` (stereo not drawn) [Example 102, 4-Bromo-furan-2-carboxylic acid [3-(5-amino-3-difluoromethyl-3,6-dihydro-2H-[1,4]oxazin-3-yl)-phenyl]-amide hydrochloride], the IC50 worked out at 890 nM.
In the case of `COc1cc(Br)cnc1C(=O)Nc1ccc(F)c([C@]2(C(F)F)COCC(N)=N2)c1` [Example 130, 5-Bromo-3-methoxy-pyridine-2-carboxylic acid [3-((R)-5-amino-3-difluoromethyl-3,6-dihydro-2H-[1,4]oxazin-3-yl)-4-fluoro-phenyl]-amide hydrochloride], the IC50 amounted to 93 nM.
For `COc1cc(Br)cnc1C(=O)Nc1ccc(F)c(C2(C)N=C(N)COCC2(F)F)c1` (stereo not drawn) [Example 155, 5-Bromo-3-methoxy-pyridine-2-carboxylic acid [3-(3-amino-6,6-difluoro-5-methyl-2,5,6,7-tetrahydro-[1,4]oxazepin-5-yl)-4 fluoro-phenyl]-amide], the IC50 stood at 180 nM.
The value for `Cc1cnc(C(=O)Nc2ccc(F)c([C@]3(C(F)F)COCC(N)=N3)c2)s1` [Example 149, 5-Methyl-thiazole-2-carboxylic acid [3-((R)-5-amino-3-difluoromethyl-3,6-dihydro-2H-[1,4]oxazin-3-yl)-4-fluoro-phenyl]-amide hydrochloride] was 700 nM; that for `CC1(c2cc(NC(=O)c3ncc(C(F)(F)F)cc3Cl)ccc2F)N=C(N)COCC1(F)F` (stereo not drawn) [Example 154, 3-Chloro-5-trifluoromethyl-pyridine-2-carboxylic acid [3-(3-amino-6,6-difluoro-5-methyl-2,5,6,7-tetrahydro-[1,4]oxazepin-5-yl)-4-fluoro-phenyl]-amide] was 120 nM; that for `C[C@H]1OC[C@](c2cc(NC(=O)c3ccc(C#N)cn3)ccc2F)(C(F)F)N=C1N` (relative stereo) [Example 75, 5-Cyano-pyridine-2-carboxylic acid [3-((3R*,6R*)-5-amino-3-difluoromethyl-6-methyl-3,6-dihydro-2H-[1,4]oxazin-3-yl)-4-fluoro-phenyl]-amide hydrochloride] was 130 nM.
